Drawing on patent publication US7915300B2, “Cysteine protease inhibitors” (Medivir AB, priority 2004, dated 2011), this text covers Ki for 2 compounds.

Read-outs that look alike come from different tables or passages of the source.

In experiment [1] the target is T1, cathepsin K (Homo sapiens, UniProt P43235).
T1 sequence (P43235 115-329): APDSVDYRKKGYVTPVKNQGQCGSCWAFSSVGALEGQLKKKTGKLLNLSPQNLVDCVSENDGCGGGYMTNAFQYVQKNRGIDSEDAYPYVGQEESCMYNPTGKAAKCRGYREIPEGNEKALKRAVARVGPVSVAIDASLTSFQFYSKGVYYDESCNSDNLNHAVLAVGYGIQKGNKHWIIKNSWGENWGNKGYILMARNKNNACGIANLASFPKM
To be noted: value from WO 02057270; read-out: Ki indicated in WO 02057270; cited from earlier work.

In experiment [2] the target is T1, cathepsin K. Nature of the experiment: Cathepsin K proteolytic activity, inhibition studies (Ki) with fluorogenic peptide substrate. In kind it is biochemical. Further details: made in house; host or cells: not fixed: E coli, Pichia or Baculovirus systems named as options. As to conditions: side by side trials in the same assay system; read-out: Cathepsin K K^1. Here is the method:
Convenient assays for cathepsin K are carried out using human recombinant enzyme, such as that described in PDB.
The recombinant cathepsin K can be expressed in a variety of commercially available expression systems including E coli, Pichia and Baculovirus systems. The purified enzyme is activated by removal of the prosequence by conventional methods.
Standard assay conditions for the determination of kinetic constants used a fluorogenic peptide substrate, typically H-D-Ala-Leu-Lys-AMC, and were determined in either 100 mM Mes/Tris, pH 7.0 containing 1 mM EDTA and 10 mM 2-mercaptoethanol or 100 mMNa phosphate, imM EDTA, 0.1% PEG4000 pH 6.5 or 100 mM Na acetate, pH 5.5 containing 5 mM EDTA and 20 mM cysteine, in each case optionally with […] as stabiliser. The enzyme concentration used was 5 nM. The stock substrate solution was prepared at 10 mM in DMSO. Screens were carried out at a fixed substrate concentration of 60 μM and detailed kinetic studies with doubling dilutions of substrate from 250 μM. The total DMSO concentration in the assay was kept below 3%. […] Product fluorescence (excitation at 390 nm, emission at 460 nm) was monitored with a Labsystems Fluoroskan Ascent fluorescent plate reader. […]
Potential inhibitors are screened using the above assay with variable concentrations of test compound. […] Ki values were calculated according to equation 1 […]

For `CC(C)CC(NC(=O)c1ccc(Oc2ccccc2)cc1)C(=O)N1CC[C@H]2OCC(=O)[C@H]21` (stereo partly drawn), the figures for the Ki on cathepsin K [1] and at cathepsin K [2] were 100 nM and 66 nM, respectively.

As to `CC(C)CC(NC(=O)c1ccc(Oc2ccccc2)cc1)C(=O)N1C[C@H](F)[C@H]2OCC(=O)[C@H]21` (stereo partly drawn), the Ki on cathepsin K [2] was determined as 5.3 nM.
